Results taken from PubChem BioAssay (NCI).
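Five compound concentrations were applied to cells in 96-well plates for 48 hours; endpoints were derived by simple linear interpolation of the resulting dose-response curve. GI50 = concentration required for 50% inhibition of growth. TGI: total growth inhibition.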

Experiments:
Assay in all cases: NCI tumour cell line growth inhibition, 48 h
[1] = tested on: HOP-62 NSCLC
[2] = tested on: SK-MEL-5 melanoma
[3] = tested on: T-47D breast
[4] = tested on: NCI-H226 lung
[5] = tested on: HCT-116 colon
[6] = tested on: U251 CNS
[7] = tested on: LOX IMVI melanoma
[8] = tested on: UACC-62 melanoma
[9] = tested on: MALME-3M melanoma
[10] = tested on: RXF 393 renal
[11] = tested on: CCRF-CEM leukemia
[12] = tested on: NCI-H23 lung
[13] = tested on: SF-295 CNS
[14] = tested on: ACHN renal
[15] = tested on: MOLT-4 leukemia
[16] = tested on: SN12C renal
[17] = tested on: UACC-257 melanoma
[18] = tested on: MDA-MB-231 breast
[19] = tested on: CAKI-1 renal
[20] = tested on: DU-145 prostate
[21] = tested on: PC-3 prostate
[22] = tested on: RPMI-8226 leukemia
[23] = tested on: HCT-15 colon
[24] = tested on: HS 578T breast
[25] = tested on: SK-MEL-28 melanoma
[26] = tested on: A549 NSCLC
[27] = tested on: OVCAR-3 ovarian
[28] = tested on: SK-MEL-2 melanoma
[29] = tested on: K-562 leukemia
[30] = tested on: OVCAR-5 ovarian
[31] = tested on: HL-60(TB) leukemia
[32] = tested on: SR leukemia
[33] = tested on: SNB-75 CNS
[34] = tested on: SNB-19 CNS
[35] = tested on: NCI-H460 lung
[36] = tested on: OVCAR-4 ovarian
[37] = tested on: KM12 colon
[38] = tested on: EKVX NSCLC
[39] = tested on: OVCAR-8 ovarian
[40] = tested on: TK-10 renal
[41] = tested on: 786-0 renal
[42] = tested on: SF-268 CNS
[43] = tested on: COLO 205 colon
[44] = tested on: HOP-92 NSCLC
[45] = tested on: MDA-MB-435
[46] = tested on: HCC-2998 colon
[47] = tested on: SK-OV-3 ovarian
[48] = tested on: A498 renal
[49] = tested on: HT29 colon
[50] = tested on: BT-549 breast
[51] = tested on: MCF7 breast
[52] = tested on: SW-620 colon
[53] = tested on: MDA-MB-468 breast
[54] = tested on: UO-31 renal
[55] = tested on: M14 melanoma
[56] = tested on: NCI-H522 lung
[57] = tested on: IGROV1 ovarian
[58] = tested on: SF-539 CNS

SMILES: Cc1ccc(C(=O)Nc2ccc(-n3ccnc3)c(C(F)(F)F)c2)cc1C#Cc1cnc2cccnn12
- GI50 [1]: 1.36 µM
- TGI [1]: > 45.8 µM
- GI50 [2]: 1.27 µM
- TGI [2]: 4.92 µM
- GI50 [3]: 0.943 µM
- TGI [3]: 4.11 µM
- GI50 [4]: 0.567 µM
- TGI [4]: 14.4 µM
- GI50 [5]: 0.917 µM
- TGI [5]: > 45.8 µM
- GI50 [6]: 3.66 µM
- TGI [6]: > 45.8 µM
- GI50 [7]: 0.637 µM
- TGI [7]: > 45.8 µM
- GI50 [8]: 0.495 µM
- TGI [8]: 1.62 µM
- GI50 [9]: 0.198 µM
- TGI [9]: 1.72 µM
- GI50 [10]: 1.12 µM
- TGI [10]: 3.31 µM
- GI50 [11]: 1.38 µM
- TGI [11]: > 45.8 µM
- GI50 [12]: 1.02 µM
- TGI [12]: > 45.8 µM
- GI50 [13]: 1.27 µM
- TGI [13]: > 45.8 µM
- GI50 [14]: 1.64 µM
- TGI [14]: 20.5 µM
- GI50 [15]: 0.822 µM
- TGI [15]: 3.51 µM
- GI50 [16]: 1.06 µM
- TGI [16]: > 45.8 µM
- GI50 [17]: 1.19 µM
- TGI [17]: > 45.8 µM
- GI50 [18]: 0.331 µM
- TGI [18]: 3.21 µM
- GI50 [19]: 1.42 µM
- TGI [19]: 16 µM
- GI50 [20]: 2.53 µM
- TGI [20]: > 45.8 µM
- GI50 [21]: 1.55 µM
- TGI [21]: 12.1 µM
- GI50 [22]: 0.83 µM
- TGI [22]: 3.6 µM
- GI50 [23]: 1.29 µM
- TGI [23]: > 45.8 µM
- GI50 [24]: 0.713 µM
- TGI [24]: 2.93 µM
- GI50 [25]: 0.79 µM
- TGI [25]: 5.78 µM
- GI50 [26]: 1.82 µM
- TGI [26]: > 45.8 µM
- GI50 [27]: 2.38 µM
- TGI [27]: > 45.8 µM
- GI50 [28]: 0.458 µM
- TGI [28]: 2.51 µM
- GI50 [29]: 0.00458 µM
- TGI [29]: > 45.8 µM
- GI50 [30]: 1.02 µM
- TGI [30]: > 45.8 µM
- GI50 [31]: 0.215 µM
- TGI [31]: 1.54 µM
- GI50 [32]: 1.33 µM
- TGI [32]: > 45.8 µM
- GI50 [33]: 0.69 µM
- TGI [33]: 5.75 µM
- GI50 [34]: 6.06 µM
- TGI [34]: > 45.8 µM
- GI50 [35]: 1.73 µM
- TGI [35]: > 45.8 µM
- GI50 [36]: 1.3 µM
- TGI [36]: > 45.8 µM
- GI50 [37]: 0.203 µM
- TGI [37]: > 45.8 µM
- GI50 [38]: 3.11 µM
- TGI [38]: > 45.8 µM
- GI50 [39]: 1.32 µM
- TGI [39]: > 45.8 µM
- GI50 [40]: 2.91 µM
- TGI [40]: > 45.8 µM
- GI50 [41]: 2.7 µM
- TGI [41]: > 45.8 µM
- GI50 [42]: 1.98 µM
- TGI [42]: > 45.8 µM
- GI50 [43]: 1.22 µM
- TGI [43]: > 45.8 µM
- GI50 [44]: 0.702 µM
- TGI [44]: 3.1 µM
- GI50 [45]: 1.1 µM
- TGI [45]: > 45.8 µM
- GI50 [46]: 1.13 µM
- TGI [46]: > 45.8 µM
- GI50 [47]: 5.18 µM
- TGI [47]: > 45.8 µM
- GI50 [48]: 2.69 µM
- TGI [48]: > 45.8 µM
- GI50 [49]: 0.915 µM
- TGI [49]: > 45.8 µM
- GI50 [50]: 1.42 µM
- TGI [50]: 4.08 µM
- GI50 [51]: 2.14 µM
- TGI [51]: > 45.8 µM
- GI50 [52]: 1.19 µM
- TGI [52]: > 45.8 µM
- GI50 [53]: 1.57 µM
- TGI [53]: > 45.8 µM
- GI50 [54]: 0.702 µM
- TGI [54]: > 45.8 µM
- GI50 [55]: 0.567 µM
- TGI [55]: > 45.8 µM
- GI50 [56]: 0.851 µM
- TGI [56]: 3.36 µM

SMILES: Nc1n[nH]c2cccc(C#Cc3cccc(NC(=O)Nc4cc(C(F)(F)F)cc(C(F)(F)F)c4)c3)c12
- GI50 [1]: 1.93 µM
- TGI [1]: 4.25 µM
- GI50 [2]: 1.88 µM
- TGI [2]: 3.69 µM
- GI50 [3]: 2.73 µM
- TGI [3]: 11 µM
- GI50 [4]: 2.82 µM
- TGI [4]: 9.34 µM
- GI50 [5]: 2.07 µM
- TGI [5]: 5.64 µM
- GI50 [6]: 2.3 µM
- TGI [6]: 6.22 µM
- GI50 [7]: 1.6 µM
- TGI [7]: 2.94 µM
- GI50 [8]: 2.11 µM
- TGI [8]: 4.9 µM
- GI50 [9]: 1.6 µM
- TGI [9]: 4.24 µM
- GI50 [10]: 2.55 µM
- TGI [10]: 6.69 µM
- GI50 [57]: 2.66 µM
- TGI [57]: 7.78 µM
- GI50 [11]: 3.27 µM
- TGI [11]: 14.2 µM
- GI50 [12]: 2.16 µM
- TGI [12]: 5.44 µM
- GI50 [13]: 2.32 µM
- TGI [13]: 6.83 µM
- GI50 [14]: 2.71 µM
- TGI [14]: 9.39 µM
- GI50 [15]: 2.77 µM
- TGI [15]: 10.2 µM
- GI50 [16]: 1.52 µM
- TGI [16]: 3.31 µM
- GI50 [17]: 2.59 µM
- TGI [17]: 8.44 µM
- GI50 [58]: 1.52 µM
- TGI [58]: 4.28 µM
- GI50 [18]: 1.06 µM
- TGI [18]: 2.45 µM
- GI50 [19]: 2.36 µM
- TGI [19]: 11.5 µM
- GI50 [20]: 3.5 µM
- TGI [20]: 12.5 µM
- GI50 [21]: 2.23 µM
- TGI [21]: 6.96 µM
- GI50 [22]: 2.63 µM
- TGI [22]: 9.16 µM
- GI50 [23]: 2.48 µM
- TGI [23]: 10.1 µM
- GI50 [24]: 1.97 µM
- TGI [24]: 7.7 µM
- GI50 [25]: 2.76 µM
- TGI [25]: 8.6 µM
- GI50 [26]: 2.59 µM
- TGI [26]: 11.3 µM
- GI50 [27]: 2.67 µM
- TGI [27]: 8.06 µM
- GI50 [28]: 1.62 µM
- TGI [28]: 3.34 µM
- GI50 [29]: 2.72 µM
- TGI [29]: > 100 µM
- GI50 [30]: 2.2 µM
- TGI [30]: 10.4 µM
- GI50 [31]: 1.81 µM
- TGI [31]: 7.04 µM
- GI50 [32]: 2.58 µM
- TGI [32]: 15.3 µM
- GI50 [33]: 0.287 µM
- TGI [33]: 10.6 µM
- GI50 [34]: 7.62 µM
- TGI [34]: 21.2 µM
- GI50 [35]: 2.04 µM
- TGI [35]: 5.14 µM
- GI50 [36]: 2.6 µM
- TGI [36]: 8.39 µM
- GI50 [37]: 1.85 µM
- TGI [37]: 4.1 µM
- GI50 [38]: 2.71 µM
- TGI [38]: 8.02 µM
- GI50 [39]: 2.93 µM
- TGI [39]: 10 µM
- GI50 [40]: 4.2 µM
- TGI [40]: 12.9 µM
- GI50 [41]: 2.16 µM
- TGI [41]: 4.78 µM
- GI50 [42]: 3.2 µM
- TGI [42]: 14 µM
- GI50 [43]: 1.88 µM
- TGI [43]: 4 µM
- GI50 [44]: 1.9 µM
- TGI [44]: 5.12 µM
- GI50 [45]: 1.92 µM
- TGI [45]: 4.18 µM
- GI50 [46]: 2.31 µM
- TGI [46]: 5.07 µM
- GI50 [47]: 3.87 µM
- TGI [47]: 12.3 µM
- GI50 [48]: 3.84 µM
- TGI [48]: 10.4 µM
- GI50 [49]: 1.67 µM
- TGI [49]: 3.26 µM
- GI50 [50]: 1.97 µM
- TGI [50]: 5.3 µM
- GI50 [51]: 2.52 µM
- TGI [51]: 7.36 µM
- GI50 [52]: 1.96 µM
- TGI [52]: 3.8 µM
- GI50 [53]: 2.22 µM
- TGI [53]: 6 µM
- GI50 [54]: 3.11 µM
- TGI [54]: 10.3 µM
- GI50 [55]: 2.02 µM
- TGI [55]: 4.55 µM
- GI50 [56]: 2.37 µM
- TGI [56]: 7.01 µM
